Experimental data from ChEMBL document CHEMBL5316318, “Structural Modification and Pharmacological Evaluation of Substituted Quinoline-5,8-diones as Potent NSD2 Inhibitors” (J Med Chem, 2023).
Calls of active or inactive are those of the source. No cut-off for these calls is given here.

Tests used:
[1] = target: Histone-lysine N-methyltransferase EZH2 (Homo sapiens, UniProt Q15910); test: Inhibition of EZH2 (unknown origin) using SAM as substrate preincubated for 10 mins followed by substrate addition and measured after 4 hrs by HTRF analysis
[2] = Half life in ICR mouse at 1 mg/kg, iv measured for 24 hrs by LC-MS/MS analysis; assay type: ADME, organism-based; settings: in vivo
[3] = Apparent permeability coefficient, Papp in MDCK cells; assay type: ADME, cell-based, Canis lupus familiaris; settings: dog
[4] = target: Neural cell adhesion molecule 1 (Homo sapiens) (UniProt P13591); test: Inhibition of NCAM1 transcriptional activation in human KMS-11 cells assessed as reduction in H3K36me2 level in promoter region by ChIP-qPCR analysis; assay type: cell-based
[5] = target: Protransforming growth factor alpha (Homo sapiens) (UniProt P01135); test: Inhibition of TGFA transcriptional activation in human KMS-11 cells assessed as reduction in TGFA mRNA expression at 0.5 uM by qRT-PCR analysis; assay type: cell-based
KMS-11 [6] = test: Modulation of Hippo signaling pathway in human KMS-11 cells at 1 uM incubated for 48 hrs by RNA-Seq analysis; assay type: cell-based; settings: filed as modulator
THP-1 = test: Antiproliferative activity against human THP-1 cells harboring wild type NSD2 assessed as inhibition of cell growth incubated for 6 days by CCK-8 assay; assay type: functional, cell-based; settings: THP-1, 144 h
Daudi = test: Antiproliferative activity against human Daudi cells assessed as inhibition of cell growth incubated for 6 days by CCK-8 assay; assay type: functional, cell-based; settings: 144 h
KMS-11 [7] = test: Induction of apoptosis in human KMS-11 cells assessed as early apoptotic cells at 0.8 uM incubated for 72 hrs by Annexin V-FITC/PI staining based flow cytometry analysis (reference value: 3.96%); assay type: functional
[8] = Tmax in ICR mouse at 3 mg/kg, po measured for 24 hrs by LC-MS/MS analysis; assay type: ADME, organism-based; settings: in vivo
KMS-11 [9] = test: Induction of apoptosis in human KMS-11 cells assessed as downregulation of BCL-XL protein expression at 0.2 to 0.8 uM by Western blot analysis; assay type: functional, cell-based; settings: dose 0.2-0.8 µM
[10] = target: Basement membrane-specific heparan sulfate proteoglycan core protein (Homo sapiens) (UniProt P98160); test: Inhibition of HSPG2 transcriptional activation in human KMS-11 cells assessed as reduction in H3K36me2 level in promoter region by ChIP-qPCR analysis; assay type: cell-based
RS4-11 = test: Antiproliferative activity against human RS4-11 cells harboring NSD2 E1099K mutant assessed as inhibition of cell growth incubated for 6 days by CCK-8 assay; assay type: functional, cell-based; settings: RS4-11, 144 h
KMS-11 [11] = test: Induction of apoptosis in human KMS-11 cells assessed as early apoptotic cells at 0.2 uM incubated for 72 hrs by Annexin V-FITC/PI staining based flow cytometry analysis (reference value: 3.96%); assay type: functional

Neural cell adhesion molecule 1 (Homo sapiens), sequence (P13591 whole entry): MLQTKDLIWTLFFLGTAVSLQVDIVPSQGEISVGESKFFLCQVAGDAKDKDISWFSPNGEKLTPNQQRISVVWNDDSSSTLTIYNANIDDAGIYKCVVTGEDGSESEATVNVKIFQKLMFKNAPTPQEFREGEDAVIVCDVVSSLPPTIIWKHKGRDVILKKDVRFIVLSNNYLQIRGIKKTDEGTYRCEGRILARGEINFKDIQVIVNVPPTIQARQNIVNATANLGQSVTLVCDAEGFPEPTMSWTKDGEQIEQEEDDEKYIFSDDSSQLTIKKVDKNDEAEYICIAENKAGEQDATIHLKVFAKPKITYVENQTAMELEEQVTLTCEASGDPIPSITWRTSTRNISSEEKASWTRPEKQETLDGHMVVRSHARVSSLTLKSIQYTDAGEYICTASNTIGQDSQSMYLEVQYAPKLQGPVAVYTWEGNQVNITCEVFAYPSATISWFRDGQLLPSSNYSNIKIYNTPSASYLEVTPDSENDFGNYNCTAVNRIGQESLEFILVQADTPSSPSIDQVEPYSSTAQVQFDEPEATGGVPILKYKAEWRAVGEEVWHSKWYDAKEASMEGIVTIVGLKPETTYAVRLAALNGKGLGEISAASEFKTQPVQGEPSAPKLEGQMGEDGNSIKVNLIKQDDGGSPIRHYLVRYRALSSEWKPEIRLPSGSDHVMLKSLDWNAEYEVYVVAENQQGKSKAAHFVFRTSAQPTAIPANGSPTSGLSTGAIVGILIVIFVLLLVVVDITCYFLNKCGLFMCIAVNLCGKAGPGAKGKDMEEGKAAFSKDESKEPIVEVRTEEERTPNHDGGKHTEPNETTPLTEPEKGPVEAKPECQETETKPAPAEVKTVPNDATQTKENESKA
Histone-lysine N-methyltransferase EZH2, sequence (Q15910 whole entry): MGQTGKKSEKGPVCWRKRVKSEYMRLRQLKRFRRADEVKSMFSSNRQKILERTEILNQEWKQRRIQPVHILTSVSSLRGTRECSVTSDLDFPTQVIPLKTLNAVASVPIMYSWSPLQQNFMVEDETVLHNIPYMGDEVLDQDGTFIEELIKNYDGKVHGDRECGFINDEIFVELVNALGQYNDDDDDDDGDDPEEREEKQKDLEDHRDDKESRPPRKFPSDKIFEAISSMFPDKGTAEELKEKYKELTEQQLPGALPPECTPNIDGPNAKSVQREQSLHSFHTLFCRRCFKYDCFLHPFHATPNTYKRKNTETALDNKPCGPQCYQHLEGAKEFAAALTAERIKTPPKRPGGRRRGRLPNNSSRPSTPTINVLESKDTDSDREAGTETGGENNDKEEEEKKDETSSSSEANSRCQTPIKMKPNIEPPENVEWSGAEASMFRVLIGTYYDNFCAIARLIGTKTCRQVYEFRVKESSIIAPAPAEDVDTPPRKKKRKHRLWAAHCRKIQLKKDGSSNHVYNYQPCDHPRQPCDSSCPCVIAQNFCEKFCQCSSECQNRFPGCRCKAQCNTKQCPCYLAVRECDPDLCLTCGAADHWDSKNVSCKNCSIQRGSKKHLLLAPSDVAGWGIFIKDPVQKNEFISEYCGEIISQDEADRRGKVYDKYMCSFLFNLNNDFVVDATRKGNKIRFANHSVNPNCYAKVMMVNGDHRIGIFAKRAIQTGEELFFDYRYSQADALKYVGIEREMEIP
Protransforming growth factor alpha (Homo sapiens), sequence (P01135 whole entry): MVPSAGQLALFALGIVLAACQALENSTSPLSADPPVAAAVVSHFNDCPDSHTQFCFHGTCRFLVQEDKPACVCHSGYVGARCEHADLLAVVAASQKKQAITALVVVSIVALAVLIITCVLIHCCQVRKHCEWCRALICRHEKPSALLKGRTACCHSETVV

**Q.** For `CC#CC(=O)NC12CC(NC3=C(Cl)C(=O)c4ncccc4C3=O)(C1)C2`, which IC50 [1] is on record?
**A.** Its IC50 is 250 nM.

**Q.** What about the half-life [2] of the same molecule?
**A.** The half-life was 8.53 h.

**Q.** What about the Papp [3] of the same molecule?
**A.** Its Papp is 45 ×10⁻⁶ cm/s.

**Q.** What about the inhibition [4] of the same molecule?
**A.** The inhibition was “Active”.

**Q.** And the inhibition [5]?
**A.** Its inhibition is “Active”.

**Q.** What about the Activity (KMS-11 [6]) of the same molecule?
**A.** Its Activity is “Active”.

**Q.** And the IC50 (THP-1)?
**A.** Its IC50 is 2640 nM.

**Q.** What about the IC50 (Daudi) of the same molecule?
**A.** The IC50 was 12800 nM.

**Q.** And the Activity (KMS-11 [7])?
**A.** Its Activity is 19.3%.

**Q.** What about the Tmax [8] of the same molecule?
**A.** The Tmax was 1.5 h.

**Q.** And the Activity (KMS-11 [9])?
**A.** The Activity was “Active”.

**Q.** What about the inhibition [10] of the same molecule?
**A.** The inhibition was “Active”.

**Q.** And the IC50 (RS4-11)?
**A.** Its IC50 is 304 nM.

**Q.** And the Activity (KMS-11 [11])?
**A.** The Activity was 4.34%.
